Data: patent US7560453B2, “6-(2, 3, 4, 5-tetrahydro-1H-benzo [D] azepin-7-yloxy) -nicotamide derivatives as radio labelled ligands” (Glaxo Group Limited, priority 2005, dated 2009)
Values belong to the compound of their own block, whether it stands above or below them.

What was measured:
histamine H3 receptor [1] = experiment: PET imaging with Compound A in pig brain; assay type: in vivo
Procedure: The animals (pig, Yorkshire/Danish Landrace (˜40 Kg; n=2) were housed singly in thermostatically controlled (20° C.) and naturally illuminated stalls. They were scanned under terminal anaesthesia (ketamine induced isoflurane anaesthesia) on different days. The left femoral artery and vein of each animal were surgically cannulated using catheters (Avanti® size 4F-7F). Blood samples were collected from the femoral artery and the radiolabelled and non-labelled agents were injected to the femoral vein. Animals were placed supine in a Siemens ECAT EXACT HR tomograph, with the head immobilized in a custom-made holding device. During the study, blood pH, pCO2 and pO2 levels were monitored and maintained within the normal physiological range. In addition, BP and heart rate were recorded throughout the study. Compound A was administered intravenously in the femoral vein as a 1 minute bolus injection. PET scanning and arterial blood sampling was commenced upon start of the radioligand administration.

histamine H3 receptors = conditions: prior art radioligands; cited from earlier work
histamine H3 receptor [2] = experiment: PET imaging with pharmacological challenges (blocking of Compound A uptake); assay type: in vivo, pig
Procedure: Four sequential high specific activity iv radioligand Compound A administrations were performed in same animal, same day. Following a baseline scan, Compound A was co-administered with escalating dose of unlabelled unlabelled compound A (0.005, 0.05 and 0.5 mg/kg). [^15O]CO and [^15O]H2O were administered pre and post administration of unlabelled compound A to monitor and to correct for changes in cerebral blood volume and changes in cerebral blood flow. […] A similar experiment was performed using escalating dose of ciproxifan (0.006, 0.06, 0.6 and 2.0 mg/kg), a known selective histamine H3 antagonist.

[3] = molecular target: T1, human histamine H3 receptor (Homo sapiens, UniProt Q9Y5N1); experiment: Competition binding assay using [125I]iodoproxifan, cell lines stably expressing human histamine H3 receptor
T1 construct: expressed in transfected cells
T1 sequence (Q9Y5N1 whole entry): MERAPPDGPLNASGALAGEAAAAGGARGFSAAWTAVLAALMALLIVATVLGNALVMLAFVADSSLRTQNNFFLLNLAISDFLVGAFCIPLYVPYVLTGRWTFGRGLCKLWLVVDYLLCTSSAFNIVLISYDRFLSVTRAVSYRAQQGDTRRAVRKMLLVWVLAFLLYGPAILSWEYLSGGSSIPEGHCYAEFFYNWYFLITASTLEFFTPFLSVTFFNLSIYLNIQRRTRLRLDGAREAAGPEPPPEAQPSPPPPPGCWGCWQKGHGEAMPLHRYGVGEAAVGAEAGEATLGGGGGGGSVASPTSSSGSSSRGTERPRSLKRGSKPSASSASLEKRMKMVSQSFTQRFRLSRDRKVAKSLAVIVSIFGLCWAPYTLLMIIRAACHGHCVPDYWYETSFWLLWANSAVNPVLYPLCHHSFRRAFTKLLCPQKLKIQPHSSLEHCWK
Procedure: The in vitro affinity of unlabelled Compound A for the histamine H3 receptor was determined by competition assay using [^125I]iodoproxifan as radioligand binding to cell lines stably expressing human histamine H3 receptor.^13

Human receptor H1 = Human receptor H1 (Homo sapiens, UniProt P35367); experiment: Binding affinity, human H1 receptor; conditions: read-out: Binding affinity (pKi), human H1 (converted)
Sequence of Human receptor H1 (P35367 whole entry): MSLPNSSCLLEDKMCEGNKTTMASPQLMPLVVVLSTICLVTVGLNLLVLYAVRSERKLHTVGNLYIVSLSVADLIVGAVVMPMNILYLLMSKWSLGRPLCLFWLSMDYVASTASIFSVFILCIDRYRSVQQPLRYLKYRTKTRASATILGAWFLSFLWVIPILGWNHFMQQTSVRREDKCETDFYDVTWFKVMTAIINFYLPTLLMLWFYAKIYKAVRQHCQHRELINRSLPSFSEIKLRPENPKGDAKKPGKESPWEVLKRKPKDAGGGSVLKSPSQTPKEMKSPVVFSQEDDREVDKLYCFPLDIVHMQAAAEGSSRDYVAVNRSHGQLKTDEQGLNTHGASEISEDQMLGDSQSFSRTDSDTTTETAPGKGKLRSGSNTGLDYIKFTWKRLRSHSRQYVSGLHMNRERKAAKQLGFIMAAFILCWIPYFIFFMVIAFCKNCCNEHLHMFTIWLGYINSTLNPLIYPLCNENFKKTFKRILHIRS

Human receptor H2 = Human receptor H2 (Homo sapiens, UniProt P25021); experiment: Binding affinity, human H2 receptor; conditions: read-out: Binding affinity (pKi), human H2 (converted)
Sequence of Human receptor H2 (P25021 whole entry): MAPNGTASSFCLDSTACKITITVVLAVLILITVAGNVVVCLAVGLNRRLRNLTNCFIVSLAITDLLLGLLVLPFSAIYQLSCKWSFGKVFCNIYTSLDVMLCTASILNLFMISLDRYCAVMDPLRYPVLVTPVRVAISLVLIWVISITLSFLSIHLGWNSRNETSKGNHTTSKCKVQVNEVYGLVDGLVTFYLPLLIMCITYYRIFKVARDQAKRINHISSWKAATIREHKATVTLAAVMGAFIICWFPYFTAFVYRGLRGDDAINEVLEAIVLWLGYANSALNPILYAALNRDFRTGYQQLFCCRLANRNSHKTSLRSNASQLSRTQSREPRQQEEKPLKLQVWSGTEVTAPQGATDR

Human receptor H4 = Human receptor H4 (Homo sapiens, UniProt Q9H3N8); experiment: Binding affinity, human H4 receptor; conditions: read-out: Binding affinity (pKi), human H4 (converted)
[4] = 2.0 mg/kg ciproxifan, 85 min post-injection

Concentration in cerebellum (histamine H3 receptor [1]): low
Ratio relative to cerebellum, frontal cortex (histamine H3 receptor [1]; 85 min, baseline): 5.3
Ratio relative to cerebellum, occipital cortex (histamine H3 receptor [1]; 85 min, baseline): 3.8
Ratio relative to cerebellum, parietal cortex (histamine H3 receptor [1]; 85 min, baseline): 4.9
Ratio relative to cerebellum, striatum (histamine H3 receptor [1]; 85 min, baseline): 9.0
Ratio relative to cerebellum, thalamus (histamine H3 receptor [1]; 85 min, baseline): 3.4
Time of peak brain uptake of radioactivity (histamine H3 receptor [1]; after administration of the radiotracer): 25 min
Brain entry (histamine H3 receptor [1]; iv 1 minute bolus): readily enters the pig brain
Compound: [11CH3]NC(=O)c1ccc(Oc2ccc3c(c2)CCN(C2CCC2)CC3)nc1 [Compound A, [^11C-N-methyl]-6-(3-cyclobutyl-2,3,4,5-tetrahydro-1H-benzo[d]azepin-7-yloxy)-nicotamide]
Regional brain distribution (histamine H3 receptor [1]; higher accumulation in striatum, cortices, thalamus, hypothalamus): reflected the known distribution of the histamine H3 receptor

Compound: [123I]c1ccc(COCCCc2cnc[nH]2)cc1 [[^123I]iodoproxifan]
Alteration of brain distribution by selective H3 receptor ligand (histamine H3 receptors): no significant alteration of the brain distribution by selective H3 receptor ligand

Compound: O=C(c1ccc(OCCCc2cnc[nH]2)cc1)C1CC1 [ciproxifan]
Ratio tissue to cerebellum of Compound A, frontal cortex (histamine H3 receptor [2]; [4]): 1.08
Ratio tissue to cerebellum of Compound A, occipital cortex (histamine H3 receptor [2]; [4]): 0.99
Ratio tissue to cerebellum of Compound A, parietal cortex (histamine H3 receptor [2]; [4]): 0.91
Ratio tissue to cerebellum of Compound A, striatum (histamine H3 receptor [2]; [4]): 1.22
Ratio tissue to cerebellum of Compound A, thalamus (histamine H3 receptor [2]; [4]): 0.72
Effect on Compound A uptake in H3-rich brain regions (histamine H3 receptor [2]; escalating dose 0.006, 0.06, 0.6 and 2.0 mg/kg): dose-dependent decrease

Selectivity over other receptors ([3]; H3 versus other receptors): high selective over other receptors
Ki ([3]; [125I]iodoproxifan as radioligand, read-out: Binding affinity (pKi), human H3 (converted)): 0.257 nM
Ki (Human receptor H1): 2510 nM
Ki (Human receptor H2): > 3160 nM
Ki (Human receptor H4): > 3160 nM
Compound: CNC(=O)c1ccc(Oc2ccc3c(c2)CCN(C2CCC2)CC3)nc1 [unlabelled Compound A]
Effect on specific uptake of radiotracer Compound A (histamine H3 receptor [2]; co-administered at 0.005, 0.05 and 0.5 mg/kg): specific uptake of radiotracer was blocked
